From patent US20110301370A1, “METHOD FOR PREPARING OREGANIC ACID” (CONSEJO SUPERIOR DE INVESTIGACIONES CIENTÍFICAS, priority 2008, published 2011)

O=C(O)C/C(C(=O)O)=C(\CCCCCCCCCCCCCCCCOS(=O)(=O)O)C(=O)O [1-Z, (Z)-3,4-dicarboxy-20-sulfooxy-3-eicosenoic acid]
melting point: 63 to 65 °C
